In patent publication US6004934A, “Tetrapeptide derivative” (Teikoku Hormone Mfg. Co., Ltd., priority 1991, dated 1999):
≈ marks a conversion by molar mass, not a printed value.

System: lymphocytic leukemia P388 cells
Experiment: screening of cytostatic activity using lymphocytic leukemia P388 cells
Format: cell-based
Description: The screening of cytostatic activity was made using lymphocytic leukemia P388 cells.

Compound: CC[C@H](C)[C@@H]([C@@H](CC(=O)N1CCC[C@H]1[C@H](OC)[C@@H](C)C(=O)N[C@@H](Cc1ccccc1)c1nccs1)OC)N(C)C(=O)[C@@H](NC(=O)[C@H](C(C)C)N(C)C)C(C)C [Dolastatin 10]
- ED50: 0.7 ng/mL (≈ 0.892 nM)
